From patent US8637510B2, “Morpholinothiazoles as alpha 7 positive allosteric modulators” (Janssen Pharmaceutica NV, priority 2009, dated 2014)

What was measured:
human alpha 7-wt nAChR = target: T1, human alpha 7-wt nAChR (Homo sapiens, UniProt P36544); test: Ca2+ flux imaging (FDSS) (Protocol B); assay type: cell-based; conditions: for Emax: efficacy of 100 μM choline defined as 100% in the absence of a PAM, read-out: a7-PAM-G_[33]_Eff_Curve_FI % Efficacy; for EC50: potentiation of 100 μM choline, compounds 0.01 μM to 30 μM, read-out: a7-PAM-G_[33]_pEC50 pEC50 (converted)
T1 construct: expressed in transfected cells
Summary of the method: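 PAM activity was measured as FDSS calcium fluorescence in α7-wt nAChR cells loaded with 2 μM Fluo-4AM, with compounds at 0.01–30 μM added alongside or 10 min ahead of sub-maximal 100 μM choline. Peak responses were normalised to choline-only efficacy, and EC50 was taken at half-maximal effect.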

T1 sequence (P36544 23-502): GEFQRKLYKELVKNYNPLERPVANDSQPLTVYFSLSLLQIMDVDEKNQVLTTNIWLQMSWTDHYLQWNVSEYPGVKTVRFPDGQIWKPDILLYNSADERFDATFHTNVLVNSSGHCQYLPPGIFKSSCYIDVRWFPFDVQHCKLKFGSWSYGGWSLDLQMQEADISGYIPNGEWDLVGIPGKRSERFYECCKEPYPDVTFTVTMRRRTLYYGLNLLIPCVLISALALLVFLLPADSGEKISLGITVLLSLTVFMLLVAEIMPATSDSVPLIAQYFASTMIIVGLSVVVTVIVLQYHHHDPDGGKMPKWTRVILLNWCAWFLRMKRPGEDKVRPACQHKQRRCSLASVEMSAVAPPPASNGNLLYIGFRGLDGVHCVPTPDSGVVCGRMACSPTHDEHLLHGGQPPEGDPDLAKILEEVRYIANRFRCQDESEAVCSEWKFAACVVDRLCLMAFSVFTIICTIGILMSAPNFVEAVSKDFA

Emax (human alpha 7-wt nAChR) [%] | melting point [°C] | EC50 (human alpha 7-wt nAChR) [nM] | Structure (SMILES)
607 | 180 | 282 | Cc1cc(-c2sc(N3C[C@@H](C)O[C@@H](C)C3)nc2CNC(=O)c2cccc(C(F)(F)F)c2)cc(C)n1 [Compound 44, N-[[2-[(2R,6S)-2,6-dimethyl-4-morpholinyl]-5-(2,6-dimethyl-4-pyridinyl)-4-thiazolyl]methyl]-3-(trifluoromethyl)-benzamide]
894 | 184 | 427 | Cc1cc(-c2sc(N3C[C@@H](C)O[C@@H](C)C3)nc2CNC(=O)c2sccc2C)cc(C)n1 [Compound 150, N-[[2-[(2R,6S)-2,6-dimethyl-4-morpholinyl]-5-(2,6-dimethyl-4-pyridinyl)-4-thiazolyl]methyl]-3-methyl-2-thiophenecarboxamide]
956 | 145 | 537 | Cc1cc(-c2sc(N3C[C@@H](C)O[C@@H](C)C3)nc2CNC(=O)c2nocc2C)cc(C)n1 [Compound 174, N-[[2-[(2R,6S)-2,6-dimethyl-4-morpholinyl]-5-(2,6-dimethyl-4-pyridinyl)-4-thiazolyl]methyl]-4-methyl-3-isoxazolecarboxamide]
953 | 168 | 66.1 | Cc1cc(-c2sc(N3C[C@@H](C)O[C@@H](C)C3)nc2CNC(=O)CCC2CC2)cc(C)n1 [Compound 50, N-[[2-[(2R,6S)-2,6-dimethyl-4-morpholinyl]-5-(2,6-dimethyl-4-pyridinyl)-4-thiazolyl]methyl]-cyclopropanepropanamide]
704 | 193 | 9770 | Cc1cc(-c2sc(N3C[C@@H](C)O[C@@H](C)C3)nc2CNC(=O)c2oc(C)nc2C)cc(C)n1 [Compound 159, N-[[2-[(2R,6S)-2,6-dimethyl-4-morpholinyl]-5-(2,6-dimethyl-4-pyridinyl)-4-thiazolyl]methyl]-2,4-dimethyl-5-oxazolecarboxamide]
610 | 185 | 331 | Cc1cc(-c2sc(N3C[C@@H](C)O[C@@H](C)C3)nc2CNC(=O)c2cccc3c2OC(F)(F)O3)cc(C)n1 [Compound 46, N-[[2-[(2R,6S)-2,6-dimethyl-4-morpholinyl]-5-(2,6-dimethyl-4-pyridinyl)-4-thiazolyl]methyl]-2,2-difluoro-1,3-benzodioxole-4-carboxamide]
 | 184 | 295 | Cc1cc(-c2sc(N3CC(C)OC(C)C3)nc2CNC(=O)c2ccc(Cl)cc2)cc(C)n1 (racemic) [Compound 58, 4-chloro-N-[[2-[2,6-dimethyl-4-morpholinyl]-5-(2,6-dimethyl-4-pyridinyl)-4-thiazolyl]methyl]-benzamide]
657 | 155 | 102 | CCCC(=O)NCc1nc(N2C[C@@H](C)O[C@@H](C)C2)sc1-c1cc(C)nc(C)c1 [Compound 41, N-[[2-[(2R,6S)-2,6-dimethyl-4-morpholinyl]-5-(2,6-dimethyl-4-pyridinyl)-4-thiazolyl]methyl]-butanamide]
 | 185 | 81.3 | Cc1cc(-c2sc(N3CCOC(C)C3)nc2CNC(=O)c2ccc(F)cc2C)cc(C)n1 (single isomer, unassigned) [Compound 70, N-[[5-(2,6-dimethyl-4-pyridinyl)-2-[(2S*)-2-methyl-4-morpholinyl]-4-thiazolyl]methyl]-4-fluoro-2-methyl-benzamide]
669 | 192 | 1620 | Cc1cc(-c2sc(N3C[C@@H](C)O[C@@H](C)C3)nc2CNC(=O)c2onc(C)c2C)cc(C)n1 [Compound 171, N-[[2-[(2R,6S)-2,6-dimethyl-4-morpholinyl]-5-(2,6-dimethyl-4-pyridinyl)-4-thiazolyl]methyl]-3,4-dimethyl-5-isoxazolecarboxamide]
 | 153 | 26.3 | Cc1cc(-c2sc(N3C[C@@H](C)O[C@@H](C)C3)nc2CNC(=O)CC2CCC2)cc(C)n1 [Compound 49, N-[[2-[(2R,6S)-2,6-dimethyl-4-morpholinyl]-5-(2,6-dimethyl-4-pyridinyl)-4-thiazolyl]methyl]-cyclobutaneacetamide]

Further lines, the molecule ahead of its results:

Structure (SMILES) | Emax (human alpha 7-wt nAChR) [%] | melting point [°C] | EC50 (human alpha 7-wt nAChR) [nM]
Cc1nocc1C(=O)NCc1nc(N2CCOCC2)sc1-c1ccncc1 [Compound 114, 3-methyl-N-[[2-(4-morpholinyl)-5-(4-pyridinyl)-4-thiazolyl]methyl]-4-isoxazolecarboxamide] | 313 | 234 | 
Cc1ccc(-c2sc(N3C[C@@H](C)O[C@@H](C)C3)nc2CNC(=O)c2ccc(Cl)cc2)cn1 [Compound 123, 4-chloro-N-[[2-[(2R,6S)-2,6-dimethyl-4-morpholinyl]-5-(6-methyl-3-pyridinyl)-4-thiazolyl]methyl]-benzamide] | 636 | 208 | 389
Cc1cc(-c2sc(N3CCOC(C)C3)nc2CNC(=O)c2cc(C)on2)cc(C)n1 (single isomer, unassigned) [Compound 74, N-[[5-(2,6-dimethyl-4-pyridinyl)-2-[(2R*)-2-methyl-4-morpholinyl]-4-thiazolyl]methyl]-5-methyl-3-isoxazolecarboxamide] |  | 167 | 2000
Cc1cc(-c2sc(N3CCOC[C@@H]3C)nc2CNC(=O)c2ccc(F)cc2C)cc(C)n1 [Compound 184, N-[[5-(2,6-dimethyl-4-pyridinyl)-2-[(3S)-3-methyl-4-morpholinyl]-4-thiazolyl]methyl]-4-fluoro-2-methyl-benzamide] | 974 | 156 | 562
Cc1ccc(-c2sc(N3C[C@@H](C)O[C@@H](C)C3)nc2CNC(=O)c2conc2C)cn1 [Compound 117, N-[[2-[(2R,6S)-2,6-dimethyl-4-morpholinyl]-5-(6-methyl-3-pyridinyl)-4-thiazolyl]methyl]-3-methyl-4-isoxazolecarboxamide] | 665 | 129 | 
CC(C)CC(=O)NCc1nc(N2C[C@@H](C)O[C@@H](C)C2)sc1-c1ccncc1 [Compound 103, N-[[2-[(2R,6S)-2,6-dimethyl-4-morpholinyl]-5-(4-pyridinyl)-4-thiazolyl]methyl]-3-methyl-butanamide] |  | 173 | 1290
Cc1cc(-c2sc(N3CCOC(C)C3)nc2CNC(=O)c2cc(C)on2)cc(C)n1 (single isomer, unassigned) [Compound 79, N-[[5-(2,6-dimethyl-4-pyridinyl)-2-[(2S*)-2-methyl-4-morpholinyl)-4-thiazolyl]methyl]-5-methyl-3-isoxazolecarboxamide] |  | 166 | 1660
Cc1cc(-c2sc(N3C[C@@H](C)O[C@@H](C)C3)nc2CNC(=O)C2C(C)(C)C2(C)C)cc(C)n1 [Compound 43, N-[[2-[(2R,6S)-2,6-dimethyl-4-morpholinyl]-5-(2,6-dimethyl-4-pyridinyl)-4-thiazolyl]methyl]-2,2,3,3-tetramethyl-cyclopropanecarboxamide] | 663 | 197 | 60.3
Cc1cc(-c2sc(N3CCOCC3)nc2CNC(=O)CC2CC2)cc(C)n1 [Compound 64, N-[[5-(2,6-dimethyl-4-pyridinyl)-2-(4-morpholinyl)-4-thiazolyl]methyl]-cyclopropaneacetamide] | 980 | 188 | 
Cc1cc(F)ccc1C(=O)NCc1nc(N2CCOCC2)sc1-c1ccncc1 [Compound 113, 4-fluoro-2-methyl-N-[[2-(4-morpholinyl)-5-(4-pyridinyl)-4-thiazolyl]methyl]-benzamide] | 730 | 191 | 2750
Cc1ccc(-c2sc(N3C[C@@H](C)O[C@@H](C)C3)nc2CNC(=O)c2cccc(F)c2)cn1 [Compound 125, N-[[2-[(2R,6S)-2,6-dimethyl-4-morpholinyl]-5-(6-methyl-3-pyridinyl)-4-thiazolyl]methyl]-3-fluoro-benzamide] | 428 | 147 | 851
O=C(CC1CC1)NCc1nc(N2CCOCC2)sc1-c1ccncc1 [Compound 112, N-[[2-(4-morpholinyl)-5-(4-pyridinyl)-4-thiazolyl]methyl]-cyclopropaneacetamide] | 525 | 135 | 
Cc1cc(-c2sc(N3CC(C)OC(C(F)(F)F)C3)nc2CNC(=O)CC2CC2)cc(C)n1 (single isomer, unassigned) [Compound 206, N-[[5-(2,6-dimethyl-4-pyridinyl)-2-[2-methyl-6-(trifluoromethyl)-4-morpholinyl]-4-thiazolyl]methyl]-cyclopropaneacetamide] | 985 | 150 | 43.7
Cc1cc(-c2sc(N3CC4CCC(C3)O4)nc2CNC(=O)c2cc(C)on2)cc(C)n1 [Compound 210, N-[[5-(2,6-dimethyl-4-pyridinyl)-2-(8-oxa-3-azabicyclo[3.2.1]oct-3-y1)-4-thiazolyl]methyl]-5-methyl-3-isoxazolecarboxamide] | 632 | 206 | 3980
Cc1cc(-c2sc(N3CCOCC3)nc2CNC(=O)c2ccc(F)cc2)cc(C)n1 [Compound 66, N-[[5-(2,6-dimethyl-4-pyridinyl)-2-(4-morpholinyl)-4-thiazolyl]methyl]-4-fluoro-benzamide] |  | 210 | 1200
O=C(NCc1nc(N2CCOCC2)sc1-c1ccncc1)C1CC1 [Compound 116, N-[[2-(4-morpholinyl)-5-(4-pyridinyl)-4-thiazolyl]methyl]-cyclopropanecarboxamide] | 259 | 189 | 
